From PubChem BioAssay (NCI)
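Dose response: 5 concentrations. Exposure: 48 h. Format: 96-well plates. Endpoint: linear interpolation; highest concentration if not reached. GI50 is the concentration that inhibits growth by half. TGI: total growth inhibition.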

Key:
Assay in all cases: NCI-60 cell line screen, 48 h
SK-OV-3 ovarian = test system: SK-OV-3 ovarian
HS 578T breast = test system: HS 578T breast
RXF 393 renal = test system: RXF 393 renal
UO-31 renal = test system: UO-31 renal
M14 melanoma = test system: M14 melanoma
UACC-257 melanoma = test system: UACC-257 melanoma
SN12C renal = test system: SN12C renal
HCT-15 colon = test system: HCT-15 colon
CAKI-1 renal = test system: CAKI-1 renal
786-0 renal = test system: 786-0 renal
RPMI-8226 leukemia = test system: RPMI-8226 leukemia
NCI-H226 lung = test system: NCI-H226 lung
SK-MEL-5 melanoma = test system: SK-MEL-5 melanoma
OVCAR-8 ovarian = test system: OVCAR-8 ovarian
OVCAR-5 ovarian = test system: OVCAR-5 ovarian
PC-3 prostate = test system: PC-3 prostate
SF-295 CNS = test system: SF-295 CNS
NCI-H460 lung = test system: NCI-H460 lung
NCI-H522 lung = test system: NCI-H522 lung
IGROV1 ovarian = test system: IGROV1 ovarian
SR leukemia = test system: SR leukemia
UACC-62 melanoma = test system: UACC-62 melanoma
COLO 205 colon = test system: COLO 205 colon
NCI-H23 lung = test system: NCI-H23 lung
K-562 leukemia = test system: K-562 leukemia
SF-268 CNS = test system: SF-268 CNS
MOLT-4 leukemia = test system: MOLT-4 leukemia
U251 CNS = test system: U251 CNS
TK-10 renal = test system: TK-10 renal
MDA-MB-435 = test system: MDA-MB-435
HT29 colon = test system: HT29 colon
HCT-116 colon = test system: HCT-116 colon
BT-549 breast = test system: BT-549 breast
SK-MEL-2 melanoma = test system: SK-MEL-2 melanoma
ACHN renal = test system: ACHN renal
OVCAR-3 ovarian = test system: OVCAR-3 ovarian
CCRF-CEM leukemia = test system: CCRF-CEM leukemia
KM12 colon = test system: KM12 colon
A498 renal = test system: A498 renal
HL-60(TB) leukemia = test system: HL-60(TB) leukemia
MDA-MB-231 breast = test system: MDA-MB-231 breast
SNB-19 CNS = test system: SNB-19 CNS
SW-620 colon = test system: SW-620 colon
MCF7 breast = test system: MCF7 breast
T-47D breast = test system: T-47D breast
LOX IMVI melanoma = test system: LOX IMVI melanoma
EKVX NSCLC = test system: EKVX NSCLC
HCC-2998 colon = test system: HCC-2998 colon
A549 NSCLC = test system: A549 NSCLC
NCI/ADR-RES ovarian = test system: NCI/ADR-RES ovarian

## COc1cccc(/C=C/C(=O)c2c(C)nc3ccccc3c2/C=C/c2ccccc2)c1OC
SK-OV-3 ovarian
  GI50: 54.1 µM
  TGI: > 100 µM
HS 578T breast
  GI50: 3.59 µM
  TGI: > 100 µM

## COc1cc2c(/C=N\N=C(N)N)c[nH]c2cc1C
RXF 393 renal
  GI50: 62.1 µM
  TGI: > 100 µM
UO-31 renal
  GI50: > 100 µM
  TGI: > 100 µM
M14 melanoma
  GI50: 15.1 µM
  TGI: 28.3 µM
UACC-257 melanoma
  GI50: 36.8 µM
  TGI: > 100 µM
SN12C renal
  GI50: 11.2 µM
  TGI: 37.5 µM
HCT-15 colon
  GI50: 35.8 µM
  TGI: > 100 µM
CAKI-1 renal
  GI50: 37.5 µM
  TGI: > 100 µM
786-0 renal
  GI50: 19.4 µM
  TGI: 46.8 µM
RPMI-8226 leukemia
  GI50: 14.3 µM
  TGI: 27.4 µM
NCI-H226 lung
  GI50: 17.1 µM
  TGI: 71.8 µM
SK-MEL-5 melanoma
  GI50: 17.2 µM
  TGI: 30.9 µM
OVCAR-8 ovarian
  GI50: 40.2 µM
  TGI: > 100 µM
OVCAR-5 ovarian
  GI50: 21.4 µM
  TGI: 64 µM
PC-3 prostate
  GI50: 14.3 µM
  TGI: 27.4 µM
SF-295 CNS
  GI50: 15.4 µM
  TGI: 43.4 µM
NCI-H460 lung
  GI50: 14.7 µM
  TGI: 27.8 µM
NCI-H522 lung
  GI50: 17.3 µM
  TGI: 32.9 µM
IGROV1 ovarian
  GI50: 33.2 µM
  TGI: > 100 µM
SR leukemia
  GI50: 16.5 µM
  TGI: 30.1 µM
UACC-62 melanoma
  GI50: 16 µM
  TGI: 33 µM
COLO 205 colon
  GI50: 17.3 µM
  TGI: 35.1 µM
NCI-H23 lung
  GI50: 18.7 µM
  TGI: 53.5 µM
K-562 leukemia
  GI50: 17.1 µM
  TGI: 30.8 µM
SF-268 CNS
  GI50: 12.5 µM
  TGI: 28.7 µM
MOLT-4 leukemia
  GI50: 14.2 µM
  TGI: 27.2 µM
U251 CNS
  GI50: 13.2 µM
  TGI: 27.3 µM
TK-10 renal
  GI50: 38.4 µM
  TGI: > 100 µM
MDA-MB-435
  GI50: 17 µM
  TGI: 33.2 µM
HT29 colon
  GI50: 18 µM
  TGI: 37.1 µM
HCT-116 colon
  GI50: 14.6 µM
  TGI: 27.7 µM
BT-549 breast
  GI50: 15.3 µM
  TGI: 28.5 µM
SK-MEL-2 melanoma
  GI50: 32.7 µM
  TGI: > 100 µM
ACHN renal
  GI50: 24.3 µM
  TGI: > 100 µM
OVCAR-3 ovarian
  GI50: 13.5 µM
  TGI: 27.3 µM
CCRF-CEM leukemia
  GI50: 14.6 µM
  TGI: 27.7 µM
KM12 colon
  GI50: 14.9 µM
  TGI: 28 µM
A498 renal
  GI50: 27.3 µM
  TGI: 73.9 µM
SK-OV-3 ovarian
  GI50: 25.8 µM
  TGI: 62.2 µM
HL-60(TB) leukemia
  GI50: 15.9 µM
  TGI: 29.4 µM
HS 578T breast
  GI50: 18.5 µM
  TGI: 40 µM
MDA-MB-231 breast
  GI50: 14.7 µM
  TGI: 34.1 µM
SNB-19 CNS
  GI50: 19.2 µM
  TGI: 54.5 µM
SW-620 colon
  GI50: 16.1 µM
  TGI: 29.6 µM
MCF7 breast
  GI50: 13 µM
  TGI: 25.7 µM
T-47D breast
  GI50: 11.7 µM
  TGI: 27.9 µM
LOX IMVI melanoma
  GI50: 31.8 µM
  TGI: > 100 µM
EKVX NSCLC
  GI50: 28.3 µM
  TGI: 88.5 µM
HCC-2998 colon
  GI50: 15.8 µM
  TGI: 29.2 µM
A549 NSCLC
  GI50: > 100 µM
  TGI: > 100 µM
NCI/ADR-RES ovarian
  GI50: 22 µM
  TGI: 59.4 µM
